In patent US12433892B2, “Compositions and methods of treatment for neurological disorders comprising depression” (Gliapharm SA, priority 2018, dated 2025):
Structures can show the parent of a compound that is named as a salt.

Assays:
[1] = system: C57Bl/6 male and female mice; test: Anxiety in elevated plus maze (EPM) after chronic treatment; type: in vivo, mouse; details: end of 28-day chronic treatment, 10 mg/kg
Method: Total distance, frequency of entry and duration in the open arms were measured using Ethovision automatic scoring; n>10;

[2] = system: C57Bl/6 male and female mice; test: In vivo chronic toxicity (28 days); details: chronic administration 10 mg/kg; treatment interrupted
Method: During this period, clinical symptoms and weight were recorded.
Chronic toxicity was assessed.

[3] = system: astrocytes; test: Intracellular glycogen quantification; type: cell-based, mouse; details: Prestwick hits; 10 uM, 3 h
Method: For glycogen dosage, a protein dosage was first performed in order to assess whether harvested astrocytes from primary cell cultures yielded enough and equivalent amounts of proteins comparing each replicate, and to ensure that the obtained differences in glycogen quantities were due to drug action and not to inner protein quantities.
Astrocytes used for these dosages were previously grown in 6-well plates for 17 days and stimulated with Vehicle (DMSO) or drug of interest (1 μM to 100 μM) for 180 min, at 37° C. 5% CO2/95% air in D5030 complete medium. Medium was removed and replaced with 600 μl of 30 mM Tris HCl, and stored at −20° C.
Proteins were dosed using the micro BCA Protein Assay kit (Thermo Scientific), as described in the manufacturer's instructions. Briefly, thawed cells were sonicated and 5 μl aliquots were placed in a transparent 96-well plate, to which we added 25 μl 30 mM Tris HCl, 70 μl H2O and 100 μl of a BCA mix (made as described in manufacturer's guidelines). After a 120 min-incubation at 37° C., absorbance was measured with Safire 2 spectrophotometer at a wavelength of 562 nm, and protein quantities were determined from a standard curve of Bovine Serum Albumin (BSA).
Glycogen was quantified using a 250 μl-aliquot of the same stimulated, thawed, and sonicated cells. After an incubation period of 30 min at 90° C. and 400 rpm, 28 μl of an acetic acid/sodium acetate (both from Sigma) 0.1M pH 4.6 buffer was added to each aliquot, which was then separated in two. Each split aliquot received whether 5 μl of amyloglucosidase (Roche) or 5 μl H2O, and all cell solutions were incubated for 120 min in a shaking 37° C.-waterbath. After a centrifugation at 16'000 G for 5 min, 20 μl of supernatant were placed 96-well plate, to which 150 μl of a mix containing 0.67 mM ATP (Roche), 0.67 mM NADP (Roche), 1.8% hexokinase/glucose-6-phosphate dehydrogenase (Roche) and 0.1M Tris Buffer-HCl/3.3 mM magnesium (Fluka)/pH 8.1 buffer was added. Fluorescence was measured with Safire 2 spectrophotometer (340 nm excitation/440 nm emission). Glycogen concentration was obtained by subtracting glucose value of samples with amyloglucosidase to samples without amyloglucosidase, and were expressed relative to the amount of proteins previously determined.
Levels of intracellular glycogen in astrocytes were measured at 3 h after stimulation with 20 hits from the Prestwick library (10 μM each), as shown in FIG. 2. n=6-10; Ctrl pos. is glutamate (0.5 mM). Statistical analysis consisted in ANOVA followed by Fisher LSD post-hoc test for pair-wise comparisons.
Statistical analysis consisted in ANOVA followed by Fisher LSD post-hoc test for pair-wise comparisons.

[4] = system: cerebral extracellular lactate; test: In vivo pharmacodynamics: lactate biosensors in cortex; set-up: species or system mouse; details: 10 mg/kg per os
Method: Extracellular levels of lactate were monitored in vivo using lactate biosensors (Pinnacle Technology), according to the manufacturer's instructions. Cannulae were surgically implanted in mice cerebral cerebral motor cortex areas M1/M2 (coordinates: +1.94 mm (to bregma), lateral −1.4 mm (to mideline), ventral −1.0 mm (to dura)) 5-7 days before administration of the compounds. Drugs were administered per os as previously described, and cerebral levels of extracellular lactate were dynamically recorded for 6 hours. Mice were administered vehicle alone first, followed 3 hours later by vehicle or drug (10 or 100 mg/kg). Area Under the Curve (AUC) quantifying the fluctuations of extracellular lactate concentrations for each of the compound tested was calculated using Graphad Prism and the ratio of AUC after drug over Vehicle administration was calculated. Groups of 8 male mice were used for each condition.
To measure biological effect of lead molecules in vivo in the brain, lactate levels were quantified after administration of the drug by using lactate biosensors implanted in the cortex of freely moving mice.

[5] = system: primary astrocytes; test: Intracellular glycogen quantification, Example 2; type: cell-based, mouse; details: 10 μM, 3 h (GP-0157: 0.1, 1, 10 μM)
Method: To assess for the effect of the compounds of the invention, those were tested in primary astrocytes, as described below. Secretion of lactate was measured directly in the extracellular medium, and indirectly through the acidification of extracellular medium using extracellular pH sensor SNARE-5F-(AND-6)-CAR (SNARF5). Glucose uptake was measured by quantification 2-deoxyglucose in the cell. Cell Cultures Primary cultures of cerebrocortical astrocytes were obtained from 1 to 2-day-old OF1 mouse pups (Charles River). Briefly, cortices were isolated and minced in small pieces under a dissecting microscope. The cells were incubated for 30 min at 37° C. in a solution containing 20 U/ml papain, 1 mM L-cysteine and 10 kU/ml DNase I. After dissociation, papain activity was stopped by the addition of fetal calf serum (FCS). Single-cell suspension was then obtained by mechanical dissociation, which consisted in cells trituration in a DMEM D7777 medium supplemented with 44 mm NaHCO3, 10 ml/L antibiotic/antimycotic solution and 10% FCS. The cells were seeded at an average density of ˜10'000 cells/cm2 on poly-D-lysine coated 96- or 12-well culture plates, depending on their use, and grown in DMEM D7777 medium supplemented with 44 mm NaHCO3, 10 ml/L antibiotic/antimycotic solution and 10% FCS at 37° C. in a humidified atmosphere containing 5% CO2/95% air. Culture medium was renewed twice a week. Cells were stimulated and harvested between DIV14 and DIV17, when confluence and cell growth were optimal. Extracellular Medium Acidification (SNARF5) Secretion of lactate was measured indirectly through the acidification of extracellular medium using extracellular pH sensor […] (SNARF5). After washing cells twice with stimulation medium (DMEM (D5030, Sigma), 1 mM NaHCO2, and 5 mM Glucose, pH 7.4) at 37° C., cells were stimulated with compounds at a final concentration ranging from 10 nM to 30 μM in 50 μl per well of stimulation medium supplemented with 10 μM of SNARF5 (Life Technologies Corporation). Each compound was tested in two different plates for duplicates. After 90 min stimulation, fluorescence was read at exc. (excitation) 480 nm/emm. (emission) 580 nm and at exc 480 nm/emm. 630 nm. The ratio of fluorescence between 630 nm and 580 emission values, which is proportional to extracellular pH, was calculated. In each plate, 8 wells were used for negative controls (DMSO 0.1%) and 8 wells were used for positive controls (CCCP 2 μM in DMSO). The extracellular medium acidification in primary mouse astrocytes treated with GP-A1 was quantified (FIG. 13). Extracellular medium acidification was measured over a period of 1.5 h and 3 h. […] Extracellular Lactate Quantification Secretion of L-lactate was measured in the extracellular medium of 96-well plated astrocytes after 90 min stimulation (at 37° C., in 5% CO2/95% air conditions) with Vehicle (DMSO), the compounds of the invention (100 nM to 100 μM) or positive control. […] Stimulation medium was composed of D5030 medium complemented with 5 mM D-glucose and 44 mM sodium bicarbonate, pH 7.2. To quantify lactate concentrations in the extracellular medium, 200 μl of a 0.2M Glycine-semicarbazide buffer (pH 10) containing 3 mM NAD and 14 U/ml LDH was added to each well of a 96-well plate containing 30 μl aliquots of extracellular medium. Samples were incubated at 37° C. for 1 h. Fluorescence intensity (340 nm excitation/450 nm emission), which represents the amount of NADH produced, was measured, and lactate concentration values were determined relative to a standard curve of L-lactate concentrations. The release of lactate from primary mouse astrocytes treated with GP-A1 was quantified (FIG. 5A and FIG. 14). Accumulation of lactate in the extracellular medium was measured over a period of 1.5 h. […] Intracellular Glycogen Quantification Astrocytes grown on 12-well plates were used for intracellular glycogen quantifications. […]

[6] = system: astrocytes; test: Intracellular glycogen quantification; type: cell-based, mouse; details: CDC54K hits; 10 uM, 3 h
[7] = system: cerebral glycogen; test: In vivo pharmacodynamics: glycogen levels in prefrontal cortex; set-up: species or system mouse; details: 10 mg/kg
From the text: To measure intracerebral levels of glycogen, mice were euthanized at different time points after drug administration, using a microwave beam (1 sec, 6 kW) focused directly on mice brains. This method of fixation results in the rapid inhibition of enzymatic reactions, thereby preserving intact metabolic state in the brain of euthanized animals. Glycogen concentration was quantified using standard biochemical procedure. Groups of 8 male mice were used for each condition.
Glycogen levels were measured in microwave-fixed PFC (prefrontal cortex, 6 kW, 1 sec), which ensures enzymatic inhibition and stops glycogen degradation. Samples were then flash frozen before dosage.
First, glycogen levels were analyzed at 1 h, 3 h and 6 h after drug administration. […] This time point was subsequently used for dose-response experiments. Glycogen levels were quantified at 3H after administration with GP-01 to GP-07 at 1, 10 or 100 mg/kg.

[8] = system: C57Bl/6 female mice; details: 100 mg/kg single per os, 14 days monitoring
Method: The compound was administered at 10 mg/kg.
In vivo acute toxicity was assessed with a starting maximal concentration of 100 mg/kg. […] Groups of 6-8 female mice were monitored for 14 days after single oral administration of the drug, weighted every day, and a macroscopic histological examination was performed at the end of the experiment. Clinical evaluation included the observation of mice' ability to feed, hydrate, notification of any visible pain, unusual grooming or respiration, blood loss, evidence of microbial infection, and/or significant loss of weight.
For this period, mice were weighted and clinically monitored (feeding, hydration, pain, grooming, respiration, blood loss, microbial infection). At the end of the 14-day evaluation, mice were sacrificed and high level organ analysis was performed. Drugs were always administered per os (gavage) in solution composed of Methocel 4KM 0.4%, Tween 0.25%.

SMILES | anxiety in EPM [1] | weight loss [2] | Glycogen (statistical significance of glycogen degradation) [3] | cerebral lactate (AUC ratio vs vehicle) [4] | mobilization of intracellular glycogen [5] | Glycogen (statistical significance of glycogen degradation) [6] | PD effect [7] | acute toxicity (toxic or not) [8]
C#C[C@]1(O)CC[C@H]2[C@@H]3[C@H](C)CC4=C(CCC(=O)C4)[C@H]3CC[C@@]21C [Tibolone] | increased anxiety | > 20% | *** (***p<0.001) | Significant increase | – | – | – | –
O=S(=O)(Nc1cc(F)cc(F)c1)c1ccc2ccccc2c1 [T5884038] | – | – | – | – | significantly enhance the mobilization of intracellular glycogen | **** (****p<0.0001) | – | –
[H]/N=C(\N/C(=N/[H])Nc1ccc(Cl)cc1)NC(C)C [Proguanil hydrochloride] | – | – | *** (***p<0.001) | – | – | – | did not show good PD effect | toxic
